How the values were obtained:
[1] = Solubility of the active agent in the formulation vehicle; format: physicochemical
[2] = Solubility of the active agent in a typical aqueous formulation; format: physicochemical; conditions: room temperature

Cc1cc(C)c(C=C2C(=O)Nc3ccccc32)[nH]1 [3-[(2,4-dimethylpyrrol-5-yl)methylene]-2-indolinone]
solubility, drug dissolved in vehicle ([1]; vehicle free of polyvinylpyrrolidone): about 15 mg/g | solubility, drug dissolved in vehicle ([1]; vehicle of the present invention (with polyvinylpyrrolidone)): over 30 mg/g | solubility in a typical aqueous formulation [2]: approximately 10 nanograms per milliliter

From patent US20020119198A1, “Self-emulsifying drug delivery systems for extremely water-insoluble, lipophilic drugs” (priority 2000, published 2002)
